Assay [1] relates to α-glucosidase. Description: α-glucosidase enzyme kinetic study (Lineweaver–Burk and secondary plots). It counts as biochemical, Yeast. To be noted: for mode of α-glucosidase inhibition: Lineweaver–Burk plots. The method, then:
Further investigation was conducted on compound 2 to study its kinetic properties with regard to the enzyme α-glucosidase using varying concentrations of the substrate.
(§1) The α-glucosidase inhibition assay was performed according to previous protocols. The assay was based on the release of p-nitrophenol from p-nitrophenol-α-D-glucopyranoside (substrate). The test samples were prepared by dissolving in 50% DMSO. […] The sample solution (10 μL) and 0.1 U/mL α-glucosidase (40 μL) in phosphate buffer (pH 6.8) were added to a 96-well plate. The mixture was preincubated at 37 °C for 10 min before adding 2 mM p-nitrophenol-α-D-glucopyranoside (50 μL). Then, the reaction was incubated again at 37 °C for 20 min. Finally, 1 M Na2CO3 solution (100 μL) was added to stop the reaction. The absorbance of the mixture was determined using a microplate reader at 405 nm.
An enzyme kinetic study was conducted based on the α-glucosidase assay as mentioned above. […] The inhibition mode was determined by double-reciprocal Lineweaver–Burk plot (1/V vs. 1/[S]). In order to estimate the Ki value, slopes of double-reciprocal lines were used to construct a secondary plot, and the Ki was calculated from the line equation of the plot.

Assay [2] addresses α-glucosidase. Description: α-glucosidase inhibition assay (p-nitrophenol release from p-nitrophenol-α-D-glucopyranoside). It counts as biochemical, Yeast. Particulars: two-fold serial dilution; acarbose positive control; read-out: α-glucosidase inhibitory activity IC50. Here is the method: In this study, each compound was initially tested at 100 μg/mL.
as §1

The structures appear in SMILES notation. Like-named read-outs stand apart in the source and are kept apart here.

A word on the Km: it is the concentration of substrate that gives half-maximal velocity. On to `C[C@H]1O[C@H](O[C@H]2[C@H](O)[C@@H](O)[C@@H](O[C@H]3[C@H](O)[C@@H](O)C(O)O[C@@H]3CO)O[C@@H]2CO)[C@H](O)[C@@H](O)[C@@H]1N[C@H]1C=C(CO)[C@@H](O)[C@H](O)[C@H]1O` (some centres unmarked) [acarbose, reference compound], for which the “mode of α-glucosidase inhibition” value in assay [1] is on record as “competitive”. Also, the Vmax in assay [1] (inhibitor dose 465 μM, PNPG 0.25 to 2 mM) is 0.10 ∆OD/min; in assay [1] (inhibitor dose 930 μM, PNPG 0.25 to 2 mM), 0.11 ∆OD/min. The Michaelis-Menten constant (Km) in assay [1] (inhibitor dose 465 μM, PNPG 0.25 to 2 mM, read-out: Km) was 6740 µM. Besides, the “Vmax as stated in text” value in assay [1] (with changing inhibitor concentration, dose not given) is 0.11 ∆OD/min.
Broadly, the IC50 is the concentration at which inhibition is half-maximal. For the compound `COc1cc(O)c2c(c1)CCc1cc(O)ccc1-2` [Compound 7, lusianthridin], the IC50 in assay [2] was 185 ± 6.9 µM.
A word on the Ki: it is a dissociation constant, usually derived from enzyme kinetics or from competition with a known ligand. The low end stands for higher affinity, the high end for lower affinity. Take `COc1cc2c3c(c1O)CCc1cc(OC)c(OC)c(c1-3)OC21c2cccc(O)c2-c2c1cc(OC)c(O)c2OC` (centres unmarked) [Compound 2, dendrogibsol]: the IC50 in assay [2] came to 19.8 ± 0.9 µM. Besides, in assay [1], the “mode of α-glucosidase inhibition” value is “noncompetitive”. The compound also had a Ki in assay [1] (from secondary plot of slopes of double-reciprocal lines) of 20.4 µM. Further, the Vmax was 0.086 ∆OD/min in assay [1] (inhibitor dose 11 μM, PNPG 0.25 to 2 mM) and 0.052 ∆OD/min in assay [1] (inhibitor dose 22 μM, PNPG 0.25 to 2 mM). For the same compound, the Km in assay [1] (inhibitor dose 11 μM, PNPG 0.25 to 2 mM, read-out: Km) worked out at 1230 µM; in assay [1] (inhibitor dose 22 μM, PNPG 0.25 to 2 mM, read-out: Km), 1190 µM; in assay [1] (with changing inhibitor concentration, dose not given, read-out: Km as stated in text) it was 1550 µM.

For the origin of these results see publication PMC7662385, “New Fluorene Derivatives from Dendrobium gibsonii and Their α-Glucosidase Inhibitory Activity” (Molecules, 2020).
